The record followed here is US20250115598A1 (Anaxis Pharma Pty Ltd, priority 2021, published 2025).

Experiment [1] has as its system Immortalised Mouse Dermal Fibroblasts (MDFs). Nature of the experiment: Cellular assay: inhibition of TSI induced necroptosis, CellTitre-Glo viability. The conditions noted are these: Mus musculus, Fibroblast; MDF, 3 hours TSI cocktail, Table 27; read-out: Inhibition of TSI-induced necroptosis (IC50 cell-based assay) in MDF. Put shortly: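 Necroptosis induced for 3 h with TSI: rhTNF 100 ng/ml, Smac mimetic 500 nM, caspase inhibitor IDN-6556 10 μM. Mouse dermal fibroblasts had received compound (36 μM top, ten three-fold steps) 30 min beforehand. ATP-based viability scaled between untreated and TSI-only wells; IC50 taken as 4-parameter curve inflection.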

Experiment [2] concerns the target human MLKL (full length) (Homo sapiens (Human), UniProt Q8NB16). Nature of the experiment: KINOMEscan binding assay, human MLKL (full length). The conditions noted are these: hMLKL, Table 25; read-out: MLKL (KD). The gist of the method: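 Assay principle: test compound competes with immobilized bead ligand for kinase; kinase retained, then eluted, is counted by qPCR. Conditions were 1% DMSO final with 11 compound concentrations in 3-fold steps, 30,000 nM top for most. The Hill equation with slope −1 gave Kd.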

For experiment [3], the target named is endogenous MLKL in U937 (Homo sapiens (Human), UniProt Q8NB16). Nature of the experiment: Degradation assay: endogenous MLKL in U937 (western blot). The conditions noted are these: U937, 24 h incubation, read-out: Degradation of endogenous MLKL in U937 (DC50 cell-based assay). How it is done:
Degradation Assay: Screening Compounds Procedure to Evaluate the Activity of Compounds in Degrading Endogenous MLKL in Human and Mouse Cell
The mouse dermal fibroblast (MDF) cell line was seeded the day before the experiment in a 24-well plate at a cell density of […] per well in a volume of 0.5 mL per well and left to attach overnight. The human monocyte cell line (U937) was seeded on the day of the experiment in a 24-well plate at a cell density of […] per well in a volume of 0.5 mL per well.
The compound was diluted in DMSO with a starting concentration of 10 mM and titrated stepwise with a dilution of 1:5. 0.5 μL of the compound dilution was added to the appropriate well to achieve a final concentration of 10; 2; 0.4; 0.08 and 0.016 μM. A DMSO only well was included as control.
The cells were incubated for 24 h in the presence of the compound at 37° C. and 10% CO2.
After the 24 h incubation period, the medium was removed and cells washed with 0.5 mL PBS. The cells were then lysed directly in 60 μL of 1×SDS gel loading buffer.
The cell lysate was heat-denatured at […] for 10 min. 10 μL of lysate per well were run on 18-well 4-15% Criterion TGX stain free gels (BIO-RAD). The proteins were then transferred onto nitrocellulose membrane with a wet transfer protocol in the Criterion Blotter (BIO-RAD).
Membranes were blocked with 5% skim milk in TBST. Primary antibody against MLKL (clone 3H1, MABC604 Merck) was used at 1:2000 dilution in TBST with 1% BSA and left shaking over night at 4° C. After washes with TBST, the membranes were incubated with goat anti-rat IgG HRP-conjugated antibody (Southern Biotech) in 1% skim milk TBST at 1:10000 dilution for 1 h at room temperature. After TBST washes the bands were imaged on the ChemiDoc MP Imaging System (BIO-RAD) with Immobilion Western Chemiluminescent HRP Substrate Forte (Millipore). The loading control GAPDH was probed for with rabbit anti-GAPDH (CST 14C10) at 1:2000 dilution in 1% BSA TBST over night at 4° C. TBST washes were followed by incubation with goat anti-rabbit IgG HRP-conjugated antibody (Southern Biotech) in 1% skim milk TBST at 1:10000 dilution for 1 h at room temperature followed by TBST washes. The signal was detected as described above.
The band intensity was measured in the ImageLab Software (BIO-RAD) and the MLKL values adjusted for loading with GAPDH. The percentage of degradation was calculated by normalizing the compound treated values to the DMSO only control.

Experiment [4] addresses endogenous MLKL in MDF (Mus musculus (Mouse), UniProt Q9D2Y4). The experiment in a line: Degradation assay: endogenous MLKL in MDF (western blot). The settings on record: MDF cells, 24 h incubation with compound, MLKL adjusted for loading with GAPDH, normalized to DMSO only control, read-out: Degradation of endogenous MLKL in MDF (DC50 cell-based assay). The gist of the method:
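Western blot band intensity of MLKL, adjusted to GAPDH loading and normalized to DMSO-only wells, gave percent degradation. Compound exposure lasted 24 h at final concentrations of 10–0.016 μM in 1:5 steps, in mouse dermal fibroblasts or human U937 cells.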

pIC50, pKd: −log10 of the molar value.

Chain of human MLKL (full length) (Q8NB16 whole entry): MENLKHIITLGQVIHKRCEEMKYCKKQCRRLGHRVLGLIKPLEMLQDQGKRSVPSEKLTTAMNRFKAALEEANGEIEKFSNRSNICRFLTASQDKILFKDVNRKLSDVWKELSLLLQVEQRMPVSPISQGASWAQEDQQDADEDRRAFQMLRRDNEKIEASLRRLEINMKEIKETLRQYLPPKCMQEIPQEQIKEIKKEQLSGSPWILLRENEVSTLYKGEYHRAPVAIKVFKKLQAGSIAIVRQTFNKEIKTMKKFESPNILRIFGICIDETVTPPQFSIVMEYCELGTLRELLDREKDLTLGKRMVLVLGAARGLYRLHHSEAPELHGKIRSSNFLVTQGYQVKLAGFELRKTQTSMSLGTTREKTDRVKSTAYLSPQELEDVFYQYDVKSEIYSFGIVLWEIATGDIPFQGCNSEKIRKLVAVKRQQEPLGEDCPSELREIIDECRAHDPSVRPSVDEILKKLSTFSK
Chain of endogenous MLKL in U937 (Q8NB16 whole entry): as above
Chain of endogenous MLKL in MDF (Q9D2Y4 whole entry): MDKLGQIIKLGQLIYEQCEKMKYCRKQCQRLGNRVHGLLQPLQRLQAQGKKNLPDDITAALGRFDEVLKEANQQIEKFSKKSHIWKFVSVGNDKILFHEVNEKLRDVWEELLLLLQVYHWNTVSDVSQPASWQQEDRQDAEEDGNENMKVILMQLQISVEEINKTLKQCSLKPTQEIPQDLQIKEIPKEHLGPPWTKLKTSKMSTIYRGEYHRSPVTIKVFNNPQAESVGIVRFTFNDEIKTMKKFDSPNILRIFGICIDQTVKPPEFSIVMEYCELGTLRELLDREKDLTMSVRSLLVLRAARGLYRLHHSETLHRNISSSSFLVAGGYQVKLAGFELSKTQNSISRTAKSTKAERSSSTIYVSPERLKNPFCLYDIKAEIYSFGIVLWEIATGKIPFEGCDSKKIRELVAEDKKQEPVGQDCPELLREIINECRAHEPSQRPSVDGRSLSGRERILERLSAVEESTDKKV

Consider `Cn1nc(-c2ccc(NS(=O)(=O)C(F)F)c(F)c2)c2c(N)ncc(-c3cnn(C4CCN(C(=O)N5CCN(c6cccc7c6C(=O)N(C6CCC(=O)NC6=O)C7=O)CC5)CC4)c3)c21` (stereo not shown) [Compound 1131, N-(4-{4-amino-7-[1-(1-{4-[2-(2,6-dioxopiperidin-3-yl)-1,3-dioxo-2,3-dihydro-1H-isoindol-4-yl]piperazine-1-carbonyl}piperidin-4-yl)-1H-pyrazol-4-yl]-1-methyl-1H-pyrazolo[4,3-c]pyridin-3-yl}-2-fluorophenyl)-1,1-difluoromethanesulfonamide], for which the negative logarithm of the IC50 (pIC50) in experiment [1] was 5.00 to 6.00. In experiment [2], the negative-log Kd (pKd) is above 8.00. Also, the DC50 in experiment [3] and in experiment [4] was below 1000 nM each time.
On to `C[C@H](Oc1cc(-c2nn(C)c3c(-c4cnn(C5CCN(Cc6cccc(CNc7cccc8c7C(=O)N(C7CCC(=O)NC7=O)C8=O)c6)CC5)c4)cnc(N)c23)ccc1NS(=O)(=O)C(F)F)c1ccc(F)cc1` (stereo partly drawn) [Compound 1095, N-(4-{4-amino-7-[1-(1-{[3-{{[2-(2,6-dioxopiperidin-3-yl)-1,3-dioxo-2,3-dihydro-1H-isoindol-4-yl]amino}methyl)phenyl]methyl}piperidin-4-yl)-1H-pyrazol-4-yl]-1-methyl-1H-pyrazolo[4,3-c]pyridin-3-yl}-2-[(1S)-1-(4-fluorophenyl)ethoxy]phenyl)-1,1-difluoromethane-sulfonamide], for which the pIC50 in experiment [1] is above 6.00. In addition, the negative-log Kd (pKd) in experiment [2] is 6.00 to 8.00. Besides, the half-maximal degradation concentration (DC50) in experiment [3] and in experiment [4] was below 1000 nM each time.
As to `C[C@H](Oc1cc(-c2nn(C)c3c(-c4cnn(C5CCC(C(=O)N6CCN(c7cccc8c7C(=O)N(C7CCC(=O)NC7=O)C8=O)CC6)N(C)C5)c4)cnc(N)c23)ccc1NS(=O)(=O)C(F)F)c1ccc(F)cc1` (stereo partly drawn) [Compound 1121, N-(4-{4-amino-7-[1-(6-{4-[2-(2,6-dioxopiperidin-3-yl)-1,3-dioxo-2,3-dihydro-1H-isoindol-4-yl]piperazine-1-carbonyl}-1-methylpiperidin-3-yl)-1H-pyrazol-4-yl]-1-methyl-1H-pyrazolo[4,3-c]pyridin-3-yl}-2-[(1S)-1-(4-fluorophenyl)ethoxy]phenyl)-1,1-difluoromethanesulfonamide], the pIC50 in experiment [1] was above 6.00. In experiment [2], the negative-log Kd (pKd) was above 8.00. Further, the DC50 in experiment [3] and in experiment [4] was below 1000 nM throughout.
Consider `C[C@H](Oc1cc(-c2nn(C)c3c(-c4cnn(C5CCN(C(=O)C6CC7(CCN(c8cccc9c8C(=O)N(C8CCC(=O)NC8=O)C9=O)CC7)C6)CC5)c4)cnc(N)c23)ccc1NS(=O)(=O)C(F)F)c1ccc(F)cc1` (stereo partly drawn) [Compound 1069, N-(4-{4-amino-7-[1-(1-{7-[2-(2,6-dioxopiperidin-3-yl)-1,3-dioxo-2,3-dihydro-1H-isoindol-4-yl]-7-azaspiro[3.5]nonane-2-carbonyl}piperidin-4-yl)-1H-pyrazol-4-yl]-1-methyl-1H-pyrazolo[4,3-c]pyridin-3-yl}-2-[(1S)-1-(4-fluorophenyl)ethoxy]phenyl)-1,1-difluoromethanesulfonamide], for which the negative-log IC50 (pIC50) in experiment [1] was above 6.00. For the same molecule, the pKd in experiment [2] was 6.00 to 8.00. Besides, the DC50 in experiment [3] and in experiment [4] was below 1000 nM throughout.
`Cc1ncsc1-c1ccc(CNC(=O)[C@@H]2C[C@@H](O)CN2C(=O)[C@@H](NC(=O)CCCCCOc2ccc(-c3cnc(N)c4c(-c5ccc(NS(=O)(=O)C(F)F)c(O[C@@H](C)c6ccc(F)cc6)c5)nn(C)c34)cn2)C(C)(C)C)cc1` [Compound 1050, (2S,4R)-1-[(2S)-2-{6-[(5-{4-amino-3-[4-(difluoromethanesulfonamido)-3-[(1S)-1-(4-fluorophenyl)ethoxy]phenyl]-1-methyl-1H-pyrazolo[4,3-c]pyridin-7-yl}pyridin-2-yl)oxy]hexanamido}-3,3-dimethylbutanoyl]-4-hydroxy-N-{[4-(4-methyl-1,3-thiazol-5-yl)phenyl]methyl}pyrrolidine-2-carboxamide]: the pKd in experiment [2] is 6.00 to 8.00. The figures for the DC50 in experiment [3] and in experiment [4] were below 1000 nM and 1000 to 10000 nM, respectively.
As to `C[C@H](Oc1cc(-c2nn(C)c3c(-c4cnn(C5CCN(C(=O)N6CC(Nc7cccc8c7C(=O)N(C7CCC(=O)NC7=O)C8=O)C6)CC5)c4)cnc(N)c23)ccc1NS(=O)(=O)C(F)F)c1ccc(F)cc1` (stereo partly drawn) [Compound 1124, N-[4-(4-amino-7-{1-[1-(3-{[2-(2,6-dioxopiperidin-3-yl)-1,3-dioxo-2,3-dihydro-1H-isoindol-4-yl]amino}azetidine-1-carbonyl)piperidin-4-yl]-1H-pyrazol-4-yl}-1-methyl-1H-pyrazolo[4,3-c]pyridin-3-yl}-2-[(1S)-1-(4-fluorophenyl)ethoxy]phenyl]-1,1-difluoromethanesulfonamide], the negative logarithm of the IC50 (pIC50) in experiment [1] was above 6.00. For the same molecule, the DC50 in experiment [3] and in experiment [4] was below 1000 nM throughout.
On to `Cc1ncsc1-c1ccc(C(COCC(=O)N2CCC(n3cc(-c4cnc(N)c5c(-c6ccc(NS(=O)(=O)C(F)F)c(O[C@@H](C)c7ccc(F)cc7)c6)nn(C)c45)cn3)CC2)NC(=O)[C@@H]2C[C@@H](O)CN2C(=O)[C@@H](NC(=O)C2(F)CC2)C(C)(C)C)cc1` (stereo partly drawn) [Compound 1104, (2S,4R)—N-(2-{2-[4-(4-{4-amino-3-[4-(difluoromethanesulfonamido)-3-[(1 S)-1-(4-fluorophenyl)ethoxy]phenyl]-1-methyl-1H-pyrazolo[4,3-c]pyridin-7-yl}-1H-pyrazol-1-yl)piperidin-1-yl]-2-oxoethoxy}-1-[4-(4-methyl-1,3-thiazol-5-yl)phenyl]ethyl)-1-[(2S)-2-[(1-fluorocyclopropyl)formamido]-3,3-dimethylbutanoyl]-4-hydroxypyrrolidine-2-carboxamide], for which the negative-log IC50 (pIC50) in experiment [1] is 5.00 to 6.00. The half-maximal degradation concentration (DC50) in experiment [3] and in experiment [4] was below 1000 nM each time.
As for `Cc1ncsc1-c1ccc(CNC(=O)[C@@H]2C[C@@H](O)CN2C(=O)[C@@H](NC(=O)C2(F)CC2)C(C)(C)C)c(OCCCCCCCCCn2cc(-c3cnc(N)c4c(-c5ccc(NS(=O)(=O)C(F)F)c(O[C@@H](C)c6ccc(F)cc6)c5)nn(C)c34)cn2)c1` [Compound 1041, (2S,4R)-N-[(2-{[9-(4-{4-amino-3-[4-(difluoromethanesulfonamido)-3-[(1S)-1-(4-fluorophenyl)ethoxy]phenyl]-1-methyl-1H-pyrazolo[4,3-c]pyridin-7-yl}-1H-pyrazol-1-yl)nonyl]oxy}-4-(4-methyl-1,3-thiazol-5-yl)phenyl)methyl]-1-[(2S)-2-[(1-fluorocyclopropyl)formamido]-3,3-dimethylbutanoyl]-4-hydroxypyrrolidine-2-carboxamide], in experiment [2], the negative-log Kd (pKd) was 6.00 to 8.00. The half-maximal degradation concentration (DC50) in experiment [3] is 1000 to 10000 nM; in experiment [4], below 1000 nM.
